Measurements from patent publication US20030162759A1, “Aldosterone blocker therapy to prevent or treat inflammation-related disorders” (priority 2000, published 2003).
“And” between values parts separate entries of the source, which are not always exact repeats. Equal entries are not always repeated. “Also recorded” adds a separate entry of the source.

Experiments:
Format in all cases: in vivo, rat
cyclooxygenase-2 (COX-2) = assay: Assay C: COX-2 relative mRNA expression in heart (TaqMan); details: for COX-2, Mean / COX-2: mRNA; for COX-2, Mean: group mean; for COX-2: individual rats; for COX-2 mRNA expression in myocardium: time course 7, 14, 30 days, eplerenone 100 mg/kg/day
Protocol: (§1) The procedure of Assay B was expanded upon in a further study. […] Myocardial tissue from animals in each treatment group was examined after 7, 14, or 30 days of treatment.
(§2) Potassium chloride supplementation was added to the saline solution in order to prevent the potential hypokalemia associated with aldosterone excess.
(§3) At the time of the surgery, an Alzet 2002 osmotic minipump (Alza Corp., Palo Alto, Calif.) containing either vehicle (9% ethanol/87% propylene glycol/4% dH2O) or 1.0 mg/mL d-aldosterone (Sigma Chemical, St. Louis, Mo.) was inserted subcutaneously at the nape of the neck. Aldosterone was administered at a dose of 0.75 g/hour. […] Animals were sacrificed from each group (n=8-13) after 7, 14, or 30 days of treatment.
(§4) The fluorogenic 5′-nuclease assay (TaqMan PCR) using Applied Biosystems' 7700 Sequence Detection System (Applied Biosystems, Foster City, Calif.) allowed for real time detection/quantitation of a specific gene by monitoring the increase in fluorescence of a gene-specific, dye-labeled oligonucleotide probe. Probes for target and reference genes were labeled at the 5′-end with a 6-carboxyfluorescein (6FAM) reporter dye and at the 3′-end with a 6-carboxy-N,N,N′,N′-tetramethylrhodamine (TAMRA) quencher dye. When the probe was annealed to the target gene, fluorescence of 6FAM was prevented by the close proximity of TAMRA. The exonuclease activity of Taq polymerase released the dyes from the oligonucleotide probe by displacing the probe from the target sequence resulting in fluorescence excitation in direct proportion to the amount of target message present. Data analysis was performed using the Sequence Detection System software from Applied Biosystems.
All primers and probes were designed using Primer Express software supplied with the 7700 Sequence Detection System and synthesized by Applied Biosystems. Standard curves using 5-fold dilutions of total RNA (from 200 ng to 320 pg) were performed to determine the efficiency of each primer/probe set in the TaqMan reaction prior to the analysis of the experimental samples. Primer/probe sets were designed from known sequences of rat genes to be analyzed. All target gene values were normalized to a reference gene, constitutively expressed cyclophilin. Primer/probe set sequences can be found in Table 8.
RNA was extracted from frozen (−80° C.) rat heart tissue using the Totally RNA Isolation Kit (Ambion, Inc., Austin, Tex.). Tissue was crushed using a stainless steel mortar and pestle, which had been chilled to −80° C. and transferred to a dounce homogenizer (Kontes, Vineland, N.J.) containing 3-10 mL cold denaturation buffer. Tissue was homogenized and transferred to a sterile, 15 mL polypropylene centrifuge tube. An equal volume of phenol:chloroform:isoamyl alcohol (25:24:1) was added, samples were shaken vigorously for 1 min, and incubated on ice for at least 15 min. Samples were centrifuged for 30 min at 10,000 g. The aqueous phase was removed, 1/10 volume of a sodium acetate solution (3.0 M NaOAc pH 4.5) was added, samples were shaken or inverted for 10 seconds, and acid-phenol (premixed with isoamyl alcohol):chloroform (5:1, Ambion, Inc.) was added at an volume equivalent to the starting sample volume. Samples were shaken vigorously for 1 min, followed by a 15-min incubation on ice, and centrifuged for 30 min at 10,000 g. The aqueous phase removed and placed in a clean polypropylene tube. An equal volume of isopropanol (Sigma, St. Louis, Mo.) was added and the samples were mixed and incubated overnight at −20° C. The samples were centrifuged for 30 min at 10,000 g, the supernatant was removed and the RNA pellet was resuspended in DNAse/RNAse-free water. Samples were frozen at −80° C. for at least 2 hours, thawed on wet ice, and diluted for quantitation.

aldosterone infused rats = assay: Assay B aldosterone infusion model: heart histology (vascular inflammatory lesions, myocardial injury); details: saline-drinking, uni-nephrectomized rats, 4 weeks, eplerenone 100 mpk p.o.
Protocol: Assay B: In vivo Aldosterone Infusion Model Male Sprague Dawley rats (n=39; BW=250 g) […] Uni-nephrectomy performed during implantation of mini-pumps 2. Aldosterone (0.75 mg/hr, sc via aizet minipump) 2. […] 1. […] Sacrifice after 4 weeks. Hearts were harvested and divided by half through a transverse section at the mid-ventricles: The upper half was stored into formalin. The bottom part was snap-frozen in liquid nitrogen for biochemical analysis. Hearts were stained with hematoxylin&eosin and the collagen specific dye picro-sirius red and were analyzed for determination of interstitial collagen volume fraction and morphologic abnormalities (i.e. necrosis, vascular injury).

Collagen III = assay: Assay C: Collagen III mRNA in left ventricle (TaqMan); details: for Collagen-III mRNA: individual rats; for Collagen-III mRNA, Mean: group mean
Protocol: as §1, §2, §3
Following exsanguination, hearts and kidneys were isolated, removed, rinsed in cold phosphate-buffered saline, and blotted dry. Kidneys were immediately bifurcated through the long axis with a razor blade and placed in 10% neutral buffered formalin (NBF, Richard-Allen Scientific, Kalamazoo, Mich.). For the hearts, the right ventricle (RV) was cut away from the left ventricle (LV), both ventricles were weighed using a Mettler AE163 balance (Mettler-Toledo, Inc., Hightstown, N.J.), and the RV was placed in 10% NBF. A 2 mm coronal slab of the LV apex was removed and frozen with dry ice/isopentane for analysis of gene expression and the remaining portion of the LV was placed in 10% NBF for fixation. Final wet trimming was completed after 3-4 days fixation where a second 2 mm coronal slab was removed for hydroxyproline analysis and a third 2 mm slab was removed from the equatorial region for histology.
as §4
Primers and probes were designed using Oligo Primer Analysis Software, Version 5.0 (National Biosciences Inc. (NBI)-Wojciech Rychlik, Cascade, Colo.). Primers were synthesized by Life Technologies (Grand Island, N.Y.) and probes were synthesized by Applied Biosystems. Primer/probe sets were designed from known sequences of rat genes to be analyzed. All target gene values were normalized to a reference gene, constitutively expressed cyclophilin. Primer/probe sets sequences can be found in Table 8
RNA was extracted from frozen (−70° C.) left ventricle (LV) tissue (approximately 10-20 mg) using 1.5 mL RNA-STAT 60 according to manufacturer's instructions (Leedo Medical Laboratories, Inc., Houston, Tex.). Briefly, tissues were homogenized using a tissue homogenizer equipped with a 5 mm probe (Ultra-Turrax T8 Homogenizer, IKA Works, Inc. Wilmington, N.C.). Following homogenization, an equal volume of molecular grade chloroform (Sigma Chemical Co., St. Louis, Mo.) was incubated with periodic mixing for 10 min at room temperature. Samples were centrifuged at 12,000 g for 10 min and RNA was precipitated from the top layer by adding an equal volume of molecular grade isopropanol (Sigma Chemical Co.) followed by an overnight incubation at −80° C.

[1] = tested on: angiotensin II infused rats; assay: Assay A angiotensin II infusion model: heart histology (coronary vascular inflammation, myocardial injury); details: for Vascular inflammation and myocardial injury in the heart: angiotensin II infused rats, aldosterone given to adrenalectomized rats

C[C@]12CCC(=O)C=C1CC[C@@H]1[C@@H]2[C@@H](O)C[C@]2(C=O)[C@@H](C(=O)CO)CC[C@@H]12 [aldosterone] was tested, and the “COX-2, Mean” value (cyclooxygenase-2 (COX-2); 14 days of treatment) was 4.34 AU, the “COX-2, Mean” value (cyclooxygenase-2 (COX-2); 30 days of treatment) was 4.53 AU and the COX-2 (cyclooxygenase-2 (COX-2); 7 days of treatment, listed as Aldosterone + salt) was 2.10 AU and 0.70 AU and 0.82 AU. For the same compound, the COX-2 (cyclooxygenase-2 (COX-2); 14 days of treatment, listed as Aldosterone + salt) was 5.80 AU and 4.18 AU, the COX-2 (cyclooxygenase-2 (COX-2); 30 days of treatment, listed as Aldosterone + salt) was 3.10 AU and 8.20 AU and the “COX-2 mRNA expression in myocardium” value (cyclooxygenase-2 (COX-2)) was “significantly increased”. For the same compound, the “Vascular inflammatory changes / myocardial injury” value (aldosterone infused rats) was “severe vascular inflammatory lesions”, the “Collagen-III mRNA” value (Collagen III; Table 9.14, 7-day protocol, listed as Aldosterone + salt) was 0.65 AU and 1.30 AU and the “Collagen-III mRNA, Mean” value (Collagen III; 14 days of treatment) was 1.08 AU. The “Collagen-III mRNA, Mean” value (Collagen III; 30 days of treatment) was 1.39 AU, the “Collagen-III mRNA” value (Collagen III; 14 days of treatment, relative to cyclophilin expression, listed as Aldosterone + salt) was 0.76 AU and 1.80 AU and 0.44 AU and 1.39 AU and 0.59 AU and the “Collagen-III mRNA” value (Collagen III; 30 days of treatment, relative to cyclophilin expression, listed as Aldosterone + salt) was 0.75 AU and 0.58 AU and 0.72 AU. The “Vascular inflammation and myocardial injury in the heart” value [1] was “restored the severe coronary and myocardial inflammation and injury”.
COC(=O)[C@@H]1CC2=CC(=O)CC[C@]2(C)[C@@]23O[C@@H]2C[C@@]2(C)[C@@H](CC[C@@]24CCC(=O)O4)[C@H]13 [eplerenone, Pregn-4-ene-7,21-dicarboxylic acid, 9,11-epoxy-17-hydroxy-3-oxo-, γ-lactone, methyl ester, (7α, 11α, 17β) -] was tested, and the “COX-2, Mean” value (cyclooxygenase-2 (COX-2); 7 days of treatment) was 1.25 AU, the “COX-2, Mean” value (cyclooxygenase-2 (COX-2); 14 days of treatment) was 2.02 AU and the “COX-2, Mean” value (cyclooxygenase-2 (COX-2); 30 days of treatment) was 2.28 AU. The COX-2 (cyclooxygenase-2 (COX-2); 7 days of treatment, listed as Eplerenone + aldosterone + salt) was 1.19 AU and 0.60 AU (2×) and 0.82 AU and 0.91 AU, the COX-2 (cyclooxygenase-2 (COX-2); 14 days of treatment, listed as Eplerenone + aldosterone + salt) was 0.70 AU and 0.99 AU and 0.86 AU and the COX-2 (cyclooxygenase-2 (COX-2); 30 days of treatment, listed as Eplerenone + aldosterone + salt) was 0.55 AU and 1.34 AU. For the same compound, the “COX-2 mRNA expression in myocardium” value (cyclooxygenase-2 (COX-2)) was “inhibition of early time-course expression of myocardial COX-2; also recorded: significantly reduced”, the “Vascular inflammatory changes / myocardial injury” value (aldosterone infused rats) was “completely prevented the vascular inflammatory changes; also recorded: prevention by eplerenone of myocardial injury” and the “Collagen-III mRNA” value (Collagen III; 14 days of treatment, relative to cyclophilin expression, listed as Eplerenone + aldosterone + salt) was 0.60 AU (2×) and 1.70 AU and 1.81 AU and 1.80 AU. For the same compound, the “Collagen-III mRNA” value (Collagen III; 30 days of treatment, relative to cyclophilin expression, listed as Eplerenone + aldosterone + salt) was 0.72 AU and 0.89 AU and 0.73 AU, the “Collagen-III (collagen type III mRNA)” value (Collagen III; mean ± SEM after 7 days of treatment, relative to cyclophilin expression) was 1.09 ± 0.21 AU and the “Collagen-III (collagen type III mRNA)” value (Collagen III; mean ± SEM after 30 days of treatment, relative to cyclophilin expression) was 1.53 ± 0.23 AU. The “Vascular inflammation and myocardial injury in the heart” value [1] was “prevention by eplerenone (epoxymexrenone) of vascular inflammation in the heart” and the “Animals with vascular inflammatory lesions in the coronary arteries” value ([1]; out of ten animals per group, angiotensin II/salt, 4 weeks, eplerenone 100 mpk) was “only one of the ten”.
